This is an account of results in US10522239B2, “Small molecule binding pockets in nucleic acids” (Nymirum, Inc., priority 2012, dated 2019).

Molecules are shown by their SMILES.

For this assay, the target named is pre-miR-122 loop. As to the kind of experiment: NMR titration binding screen against pre-miR-122 loop. Set-up: species or system human. The note with it: NMR titration experiments. From the text:
The apical loop sequence of human pre-miR 122 RNA sequence was investigated as an example. Two base pairs at the 5′- and 3′-ends of the sequence were modified from the native pre-miR 122 sequence in order to stabilize the 24-mer stem loop construct for NMR studies (5′-[…]-3′) (SEQ ID NO: 2).
Because pre-miR-122 is cleaved near the helix-apical loop interface, the apical loop was targeted to identify binding pockets. […] Given the size and plasticity of the loop, it was hypothesized that the loop could assume different conformations to bind small molecules. To identify small molecule binding pockets, each of the 60 small molecules in Nymirum's small molecule library was screened against the pre-miR-122 loop using NMR titration experiments. Two small molecules, NC1404 (9-aminoacridine) and NC1444 (L-arg-p-nitroanilide), were identified to bind with Kds of 71.7±9.0 μM and 17.6±3.25 μM respectively (FIGS. 12A and 12B). Using the same procedure detailed for A-site, bound-state chemical shifts for NC1404 and NC1444 were measured, used to solve a bound-state pre-miR-122 structure and a binding pocket for each compound was identified (FIGS. 12A and 12B). […]

By Kd is commonly meant the free concentration of one partner at which half of the binding sites on the other are occupied at equilibrium, for simple one-to-one binding. The low end stands for a tighter complex, the high end for a looser complex. Regarding `N=C(N)NCCC[C@H](N)C(=O)Nc1ccc([N+](=O)[O-])cc1` [NC1444, L-arg-p-nitroanilide], binding was put at a Kd of 17.6 ± 3.25 µM.

For the molecule `Nc1c2ccccc2nc2ccccc12` [NC1404, 9-aminoacridine], the Kd worked out at 71.7 ± 9 µM.
